Assay results: patent US20160123988A1, “METHOD OF TRACELESS LABELING GLYCOPROTEINS ON SURFACE AND APPLICATION THEREOF” (NATIONAL SUN YAT-SEN UNIVERSITY, priority 2014, published 2016)

Columns and labels:
[1] = target: T1, RNase B (Bos taurus, UniProt P61823); assay: Immobilization of RNase B on functionalized slides, read out with Con A-FITC fluorescence; assay type: biochemical, bovine; conditions: for Con A-FITC signal of RNase B on probe-functionalized slides: slides incubated with RNase B then treated with glycerol, compared to BA-tosyl-treated slides, FIG. 6(b), 6(c); for Con A-FITC intensity after release of BA-tosylate by polyol: RNase B on BA-tosyl slides, glycerol 10%, sorbitol 100 mM, compared to galactose 100 mM, FIG. 6(a)
T1 construct: Fetuin (from fetal calf serum) and RNase B (from bovine pancreas) were purchased from Sigma-Aldrich; purchased Sigma-Aldrich; host or cells: bovine pancreas (natural source)
T1 sequence (P61823 27-150): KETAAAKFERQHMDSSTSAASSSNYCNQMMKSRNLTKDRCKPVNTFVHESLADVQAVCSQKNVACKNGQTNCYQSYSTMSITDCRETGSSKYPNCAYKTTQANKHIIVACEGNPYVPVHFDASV
Method: The aforementioned azide-functionalized slide was rinsed twice with sodium phosphate buffer (25 mM, pH 8.0) and immersed in the same buffer (45 mL). To effect the Cu(I)-catalyzed 1,2,3-triazole cycloaddition, BA-tosyl 1 (or compound 7 or 8) was added to the reaction mixture to afford a final concentration of 5 mM and treated with TCEP (2 mM) and TBTA (2 mM). Then, an aqueous solution of CuSO 4 (100 mM) was added to the reaction mixture to give a final concentration of 4 mM, and the mixture was allowed to react at RT. After 12 h, the slide was washed three times with PBS and twice with distilled deionized water (ddH2O) to obtain BA-tosyl 1 (or compound 7 or 8)-functionalized slides.
Fluorescein-labeled lectins (Con A-FITC and WGA-FITC, 10 μM in PBS containing 5 mM CaCl2 and 5 mM MnCl2) were incubated with the glycoprotein microarray at RT for 1 h. Then, the slide was washed three times with PBS containing 10% glycerol and twice with ddH2O. Finally, the slide was dried under warm air and subjected to fluorescence analysis.
To quantitatively evaluate the protein-glycoprotein interactions, the lectin-glycoprotein complexes were analyzed by measuring the fluorescence intensities of the fluorescein tags. The fluorescence signals were directly detected by a NovaRay Microarray Scanner with an FITC filter, and were subsequently analyzed using ArrayVision software.
Glycoproteins in ddH2O containing 20% dimethyl sulfoxide (DMSO) were spotted onto the surface of the functionalized slide. To immobilize glycoproteins on the slides, an AD1500 arrayer (Biodot) was used to print samples of interest onto the functionalized slide with a spot volume of 20 nL under 85% relative humidity at 25° C. The protein sample was allowed to incubate at 25° C. for 12 h, and the glycoprotein solution was then removed by decanting the reaction mixture. The slide was incubated with ddH2O containing 10% glycerol for 30 min, followed by washing twice with the same solution (ddH2O with 10% glycerol). The slide was further treated with 10 mM imidazole solution (Tris buffer, 10 mM NaCl, pH 7.4) for 30 min to block unreacted BA-tosyl groups. The obtained glycoprotein micro-array was then washed three times by PBS (pH 7.4) and was ready for advanced use.
To evaluate the details of the immobilization mechanism, ribonuclease B (RNase B), carrying a single N-glycan chain composed of high mannose isomers, was spotted onto BA-tosyl-functionalized slides and allowed to incubate at 25° C. for 12 h. The slides were then individually treated with three different polyols in phosphate buffered saline (PBS) to competitively release the BA-tosylate. Glycerol (10%), galactose (100 mM), and sorbitol (100 mM) were used. […]

[2] = target: T2, fetuins (Bos taurus, UniProt P12763); assay: Labeling of fetuins by probes, biotinylation, SDS-PAGE and Western blotting with anti-biotin antibody; assay type: biochemical, calf; conditions: probe 40 μM, fetuins 20 μM, 37° C., 48 h; FIG. 3
T2 construct: Fetuin (from fetal calf serum) and RNase B (from bovine pancreas) were purchased from Sigma-Aldrich; purchased Sigma-Aldrich; host or cells: fetal calf serum (natural source)
T2 sequence (P12763 19-359): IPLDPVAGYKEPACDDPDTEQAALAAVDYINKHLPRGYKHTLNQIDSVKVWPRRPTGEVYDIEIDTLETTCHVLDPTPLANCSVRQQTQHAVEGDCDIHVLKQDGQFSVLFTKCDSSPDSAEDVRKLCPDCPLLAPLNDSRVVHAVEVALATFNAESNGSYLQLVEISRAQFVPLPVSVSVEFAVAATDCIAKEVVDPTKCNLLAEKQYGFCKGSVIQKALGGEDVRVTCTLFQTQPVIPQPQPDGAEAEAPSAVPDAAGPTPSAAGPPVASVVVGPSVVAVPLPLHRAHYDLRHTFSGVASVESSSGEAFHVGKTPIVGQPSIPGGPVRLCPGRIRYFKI
Method: A solution of fetuins (10 μM) was incubated with BA-tosyl probes 1-3 (50 μM) in PBS buffer (0.1 M, pH 8.0) at 37° C. for 48 h. Then, the unreacted BA-tosyl probes were removed by centrifugal filtration (Amicon Ultra-0.5 mL 10K) at 15,000 rpm, followed by washing five times with PBS buffer (300 μL). The resultant alkyne-tagged fetuins (11.53 μL, 26.28 μg/μL) were collected and treated with azido biotin (20 μL, 1 mM) in PBS buffer (44.47 μL, pH 8.0, 0.1 M). Then, the mixture was treated with tris(carboxyethyl)phosphine (TCEP, 0.1 M, 2 μL) and tris[(1-benzyl-1H-1,2,3-triazol-4-yl)methyl]amine (TBTA, 0.01 M, 20 μL) with gentle shaking. After homogeneous mixing, CuSO4 (0.1 M, 2 μL) was added, and the reaction mixture was shaken at RT for 12 h. The excess reactants were removed by centrifugal filtration at 15,000 rpm, and the biotinylated fetuins were obtained.
To evaluate the specificity of synthetic BA-tosyl probes, BA-tosyl 1-3, aniline-tosyl 7, and BA-alkyne 8 (40 μM) were incubated with fetuins (20 μM), blood glycoproteins carrying triantennary glycan chains with terminal N-acetylneuraminic acids, at 37° C. for 48 h. The unreacted chemical probes were then removed by centrifugal filtration or size-exclusion column chromatography to obtain the alkyne-labeled fetuins. Azido biotin was then used to form biotinylated fetuins via Cu(I)-catalyzed 1,2,3-triazole cycloaddition. […]

Row | Structure (SMILES) | Con A-FITC signal of RNase B on probe-functionalized slides [1] | Con A-FITC signal of RNase B on probe-functionalized slides ([1]; listed as 7) | Western blot band of biotin-labeled fetuins (labeling of fetuin) [2] | Con A-FITC intensity after release of BA-tosylate by polyol [1]
1 | C#CCCCOS(=O)(=O)c1cc(C=O)cc(C(=O)Nc2ccccc2)c1 [aniline-tosyl 7] | very low signal intensity | nearly background-level signals | much weaker signal | –
2 | OCC(O)CO [glycerol] | – | – | – | twice the intensity
3 | OC[C@@H](O)[C@@H](O)[C@H](O)[C@@H](O)CO [sorbitol] | – | – | – | twice the intensity
